# How the values were obtained:
# [1] = tested on: HT29-GFP cells; assay: HT29-GFP liver metastasis in nude mice; format: in vivo, mouse; settings: sorbinil 40 mg/kg body weight in the diet, 34 days
# Method: For in vivo metastasis studies, 4- to 6-weeks-old male nude^nu/nu mice were obtained from Harlan Sprague Dawley (Indianapolis, Ind.) and housed in clean, pathogen-free rooms in an environment with controlled temperature (22° C.), humidity and a 12 hours light/dark cycle. The mice were fed standard chow (Formula Chow 5008; Purina Mills, St. Louis, Mo.), given tap water ad libitum and were allowed to acclimate for 1 week. Metastatic HT29-GFP cells were injected intrasplenically by known methods.
# Briefly, mice were anesthetized with halothane, a small left abdominal flank incision was created and the spleen was exteriorized. HT29-GFP cells were harvested using only trypsin and were resuspended as a single-cell suspension in Hanks Balanced Salt Solution, free of Mg^2+ and Ca^2+. HT29-GFP cells (5×10^6 cells/400 μl) were injected into the spleen with a 27-gauge needle. The spleen was returned to the abdomen and the wound was closed in one layer with wound clips. After 24 hrs spleen was removed and animals were randomized into metastatic control and AR inhibitor, sorbinil group. Control group was fed with normal diet and AR inhibitor group fed with sorbinil (40 mg/kg body weight) in the diet. Mice were killed after 35 days, and metastasis in the liver was evaluated by using the Illumatool TLS (Lightools Research, Encinitas, Calif.). […]
# [2] = tested on: Caco-2 cells; assay: Western blot of phospho-PKC-b2 in Caco-2 cells; format: cell-based, human; settings: BFGF or PDGF
# Method: (§1) To examine expression of any of Cox-1, Cox-2, phospho-PKC-2, GAPDH, E2F1, Cyclin D1, Cyclin E, and iNOS proteins, Western blot analyses were carried by known methods (15). Equal amounts of protein from cell extracts were subjected to 12% SDS-PAGE followed by transfer of proteins to nitrocellulose filters, probing with the indicated antibodies, and the antigen-antibody complex was detected by enhanced chemiluminescence (Pierce, Piscataway, N.J., USA).
# [3] = tested on: HT29 cells; assay: HT29 cell proliferation, MTT assay; format: cell-based; settings: inhibitor alone
# Method: HT29 cells were grown to confluence in McCoy's medium and harvested and plated 2,500 per well in a 96-well plate. Subconfluent cells were growth arrested in 0.1% FBS with or without AR inhibitor sorbinil or zopolrestat (20 μM). After 24 hours, EGF (5 ng/ml) or BFGF (10 ng/ml) was added to the medium and the cells were incubated for another 24 hours. Cells incubated with the AR inhibitors alone served as control. Cell viability was determined by an MTT assay.
# [4] = tested on: Caco-2 cells; assay: Cox-2 mRNA RT-PCR in Caco-2 cells; format: cell-based, human; settings: sorbinil 24 h, growth factor 3 h
# Method: Total RNA was isolated from Caco-2 cells by using Rnaeasy micro isolation kit (Qiagen). Total RNA (1.5 μg) sample was reverse transcribed with Omniscript and Sensiscript reverse transcriptase one-Step RT PCR system with HotStarTaq DNA polymerase (Qiagen) at 55° C. for 30 min followed by PCR amplification. The oligonucleotide primer sequences were as follows: 5′-[…]-3′ (sense; SEQ ID NO: 4) and 5′-[…]-3′ (antisense; SEQ ID NO: 5) for Cox-2, and 5′-[…]-3′ (SEQ ID NO: 6) and 5′-[…]-3′ (SEQ ID NO: 7) for β-actin. PCR reaction was carried out in a GeneAmp 2700 thermocycler (Applied Biosystems, Foster City, Calif.) under the following conditions: initial denaturation at 95° C. for 15 min; 35 cycles of 94° C. 30 s, 62° C. 30 s, 72° C. 1 min, and then 72° C. 5 min for final extension (57). PCR products were electrophoresed in 2% Agarose-1™ TAE gels containing 0.5 μg/ml ethidium bromide.
# [5] = tested on: A549 cells; assay: Western blot of Cox-2 and iNOS in A549 cells; format: cell-based, human; settings: concentration dependent
# Method: as §1
# [6] = tested on: Caco-2 cells; assay: NF-kB p65 transcription factor (DNA binding) assay; format: cell-based, human
# Method: The cytosolic as well as nuclear extracts were prepared as described earlier (15) and the NF-kB activity was determined by using the colorimetric non-radioactive NF-kB p65 Transcription Factor Assay kit (Chemicon Intl.) as per the supplier's instructions. Briefly, a double stranded biotinylated oligonucleotide containing the consensus sequence for NF-kB binding (5′-[…]-3′; SEQ ID NO: 3) was mixed with nuclear extract and assay buffer. After incubation, the mixture (probe+extract+buffer) was transferred to the streptavidin-coated ELISA kit and read at 450 nm using an ELISA plate reader. For each experiment, triplicate samples were measured for statistical significance.
# [7] = tested on: Caco-2 cells; assay: Flowcytometric cell cycle analysis, Caco-2; format: cell-based, human; settings: sorbinil 20 μM
# Method: The Caco-2 and A549 cells were grown separately in 6 well plates at a density of approximately 1.5×10^5 cells/well. Growth-arrested Caco-2 cells were pre-incubated with or without sorbinil 20 μM or carrier for 24 h and then stimulated with either 10 ng/ml BFGF or PDGF for another 24 h. After 24 hrs A549 cells were incubated with or without sorbinil at different concentrations for another 24 h.
# The Caco-2 and A549 cells were then washed with PBS and harvested by trypsinization. Cellular DNA was stained with low and high salt solutions. Briefly, cells were resuspended in 250 μl of solution A, low salt stain, containing polyetheleneglycol (30 mg/ml), propidium iodide (0.05 mg/ml), triton-x-100 (1 μl/ml), sodium citrate 4 mM, RNAse A 10 μg/ml and incubated at 37° C. for 20 min followed by the addition of 250 μl of solution B, high salt stain containing 400 mM NaCl instead of 4 mM sodium citrate in solution A, and incubated overnight at 4° C. Cell cycle analysis was performed with a minimum of 10,000 events per analysis by using FACScan flow cytometer (Becton, Dickinson and Co., San Jose, Calif., USA).
substance,measurement,setting,value
"(S)-6-fluorospiro[chroman-4,4′-imidazolidine]-2,5′-dione [sorbinil]","tumor metastasis to the liver (GFP fluorescence, pixel numbers)",[1],significant decrease
same,attenuation of increase in PKC-β2 phosphorylation,[2],> 70%
same,HT29 cells proliferation,[3],did not cause any effect
same,prevention of BFGF or PDGF-induced Cox-2 mRNA levels,[4],55-65%
same,Cox-2 and iNOS expression,[5],inhibit
same,inhibition of BFGF or PDGF-induced NF-kB DNA binding activity,[6],> 70%
same,percentage of cells in G1,[7]; Control,54.97%
same,percentage of cells in G2,[7]; Control,5.32%
same,percentage of cells in S,[7]; Control,39.71%
same,percentage of cells in G1,[7]; FGF,36.31%
same,percentage of cells in G2,[7]; FGF,1.54%
same,percentage of cells in S,[7]; FGF,52.15%
same,percentage of cells in G1,[7]; PDGF,36.18%
same,percentage of cells in G2,[7]; PDGF,12.10%
same,percentage of cells in S,[7]; PDGF,51.71%

# Source: US8551997B2, “Structural-based inhibitors of the glutathione binding site in aldose reductase, methods of screening therefor and methods of use” (The Board of Regents of the University of Texas System, priority 2004, dated 2013)
